ChEMBL document CHEMBL4052688, “Design, synthesis and biological evaluation of novel 3H-imidazole [4,5-b] pyridine derivatives as selective mTOR inhibitors” (Bioorg Med Chem Lett, 2017)

Tests used:
[1] = target: Serine/threonine-protein kinase mTOR (Homo sapiens, UniProt P42345); experiment: Inhibition of mTOR (unknown origin) by Kinase-Glo plus luminescence kinase assay or and ADP-Glo Plus luminescence kinase assay
[2] = target: Phosphatidylinositol 4,5-bisphosphate 3-kinase catalytic subunit alpha isoform (Homo sapiens, UniProt P42336); experiment: Inhibition of PI3Kalpha (unknown origin) using lipid substrate by Kinase-Glo plus luminescence kinase assay or and ADP-Glo Plus luminescence kinase assay
[3] = test system: MCF7; experiment: cells; settings: Homo sapiens, MCF7, 72 h
Description: Antiproliferative activity against human MCF7 cells incubated for 72 hrs by MTT assay

[4] = test system: A2780; experiment: cells; settings: Homo sapiens, A2780, 72 h
Description: Antiproliferative activity against human A2780 cells incubated for 72 hrs by MTT assay

Phosphatidylinositol 4,5-bisphosphate 3-kinase catalytic subunit alpha isoform, sequence (P42336 whole entry, canonical isoform): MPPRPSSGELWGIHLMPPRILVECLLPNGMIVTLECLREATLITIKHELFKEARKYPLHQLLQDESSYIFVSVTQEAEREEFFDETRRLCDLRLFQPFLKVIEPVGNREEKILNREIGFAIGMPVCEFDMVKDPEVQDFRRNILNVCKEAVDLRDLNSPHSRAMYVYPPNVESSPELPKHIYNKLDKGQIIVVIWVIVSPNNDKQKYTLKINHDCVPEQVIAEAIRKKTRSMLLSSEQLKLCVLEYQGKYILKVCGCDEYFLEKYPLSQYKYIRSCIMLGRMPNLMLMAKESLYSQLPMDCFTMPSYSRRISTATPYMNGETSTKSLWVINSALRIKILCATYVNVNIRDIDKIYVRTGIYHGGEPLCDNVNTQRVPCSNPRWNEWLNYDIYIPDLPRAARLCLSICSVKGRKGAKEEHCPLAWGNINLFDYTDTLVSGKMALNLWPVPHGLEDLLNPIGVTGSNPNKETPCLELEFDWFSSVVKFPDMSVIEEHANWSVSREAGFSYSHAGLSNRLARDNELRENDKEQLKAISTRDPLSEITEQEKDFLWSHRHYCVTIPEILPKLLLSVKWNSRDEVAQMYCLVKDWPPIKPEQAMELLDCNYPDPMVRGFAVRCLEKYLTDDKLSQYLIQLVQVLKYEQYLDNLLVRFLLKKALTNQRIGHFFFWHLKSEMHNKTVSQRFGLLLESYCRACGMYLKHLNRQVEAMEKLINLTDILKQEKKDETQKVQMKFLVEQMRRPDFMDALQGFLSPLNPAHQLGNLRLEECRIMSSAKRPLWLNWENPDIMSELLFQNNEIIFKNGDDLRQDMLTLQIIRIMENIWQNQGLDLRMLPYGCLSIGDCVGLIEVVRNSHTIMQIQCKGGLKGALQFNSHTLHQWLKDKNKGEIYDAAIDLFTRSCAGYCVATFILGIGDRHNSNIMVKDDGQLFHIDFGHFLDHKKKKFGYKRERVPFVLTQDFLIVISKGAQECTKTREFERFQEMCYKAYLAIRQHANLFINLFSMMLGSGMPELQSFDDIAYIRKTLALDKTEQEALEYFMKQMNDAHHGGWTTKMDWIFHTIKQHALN

CCCn1cnc2c(N3CCOC[C@@H]3C)cc(-c3ccc(NC(=O)NCC)cc3)nc21
IC50 [1]: 0.29 µM | IC50 [2]: > 10 µM | IC50 [3]: 0.064 µM | IC50 [4]: 3.11 µM

CCNC(=O)Nc1ccc(-c2cc(N3CCOC[C@@H]3C)c3nc(C)n(CC)c3n2)cc1
IC50 [1]: 0.33 to 0.332 µM | IC50 [2]: > 10 µM | IC50 [3]: 0.018 µM | IC50 [4]: 2.71 µM

CCNC(=O)Nc1ccc(-c2nc3c(c(N4CCOC[C@@H]4C)n2)CCN(C2COC2)C3)cc1 [RG-7603]
IC50 [1]: 0.039 µM | IC50 [2]: 4.2 µM | IC50 [3]: 0.0058 µM | IC50 [4]: 0.33 µM
